Test results: patent publication US5475010A, “7'-amino-naphthazarin antibiotic derivatives” (Gruppo Lepetit S.p.A., priority 1991, dated 1995)
≈ marks a conversion by molar mass, not a printed value. Where a name gives a salt, the structure may show the parent alone. Read-outs that look alike come from different tables or passages of the source.

Columns and labels:
Assay type in all cases: cell-based
[1] = tested on: Tricophyton mentagrophytes; assay: MIC by broth microdilution, Trichophyton mentagrophytes; settings: 72 h
[2] = tested on: Propionibacterium acnes ATCC 6919; assay: MIC by broth microdilution, Propionibacterium acnes; settings: Cutibacterium acnes
[3] = tested on: Streptococcus pneumonieae UC 41; assay: MIC by broth microdilution, Streptococcus pneumoniae; settings: UC41
[4] = tested on: Staphilococcus aureus Tour; assay: MIC by broth microdilution, Staphylococcus aureus Tour; settings: Iso-Sensitest broth, 37° C., 20-24 h, air
[5] = tested on: Bacteroides fragiles ATCC 9689; assay: MIC by broth microdilution, Bacteroides fragilis; settings: ATCC9689, Table 2, internal code 1010, approx. 10^4 cfu/ml, Wilkins-Chalgren broth, 37° C., 48 h, N2-CO2-H2 (80:10:10)
[6] = tested on: Staphilococcus haemolyticus (clin. isolate); assay: MIC by broth microdilution, Staphylococcus haemolyticus
[7] = tested on: Proteus vulgaris X19H ATCC 881; assay: MIC by broth microdilution, Proteus vulgaris
[8] = tested on: Pseudomonas aeruginosa ATCC 10145; assay: MIC by broth microdilution, Pseudomonas aeruginosa; settings: ATCC10145, Table 2, internal code 4, approx. 10^4 cfu/ml, Iso-Sensitest broth, 37° C., 20-24 h, air
[9] = tested on: Streptococcus pyogenes C 203; assay: MIC by broth microdilution, Streptococcus pyogenes; settings: C203
[10] = tested on: Enterococcus faecalis ATCC 7080; assay: MIC by broth microdilution, Enterococcus faecalis; settings: ATCC7080
[11] = tested on: Staphilococcus epidermidis ATCC 12228; assay: MIC by broth microdilution, Staphylococcus epidermidis; settings: ATCC12228
[12] = tested on: Escherichia coli SKF 12140; assay: MIC by broth microdilution, Escherichia coli; settings: SKF12140
[13] = tested on: Clostridium perfringens ISS 30543; assay: microbe, parasite or virus in culture; settings: ISS30543, 48 h
[14] = Table 2, internal code 165, inoculum 10^6 cfu/ml
[15] = Table 2, internal code 165, inoculum approx. 10^4 cfu/ml
[16] = Table 2, internal code 165, + 30% bovine serum
[17] = ATCC6919, Table 2, internal code 1014, approx. 10^4 cfu/ml, Wilkins-Chalgren broth, 37° C., 48 h, N2-CO2-H2 (80:10:10), read-out: MIC

SMILES	MIC ([1]; Table 2, internal code 634, 1% (v/v) suspension of mycelia and conidia, YM broth, 30° C., air, read-out: MIC) [mg/L]	MIC ([2]; ATCC6919, 48 h) [mg/L]	MIC [3] [mg/L]	MIC ([4]; Table 2, internal code 165, + 30% bovine serum, read-out: MIC) [mg/L]	MIC [4, 14] [mg/L]	MIC [4, 15] [mg/L]	MIC [5] [mg/L]	MIC [6] [mg/L]	MIC ([7]; ATCC881) [mg/L]	MIC [8] [mg/L]	MIC [9] [mg/L]	MIC [10] [mg/L]	MIC [11] [mg/L]	MIC [12] [mg/L]	MIC [1] [mg/L]	MIC [4, 16] [mg/L]	MIC [13] [mg/L]	MIC ([7]; ATCC881, Table 2, internal code 79, approx. 10^4 cfu/ml, Iso-Sensitest broth, 37° C., 20-24 h, air, read-out: MIC) [mg/L]	MIC [2, 17] [mg/L]
CCNC1=CC(=O)c2c(O)c3c(c(O)c2C1=O)OC1(C3)CC(O)c2cc3cc(C(=O)OC)oc(=O)c3c(O)c2O1 (centres unmarked) [Example 10, 7'-ethylamino purpuromycin]	≤ 0.13	0.06 (≈ 0.109 µM)	0.06 (≈ 0.109 µM)	1	0.06 (≈ 0.109 µM)	0.06 (≈ 0.109 µM)	0.06 (≈ 0.109 µM)	0.06 (≈ 0.109 µM)	> 128	> 128	0.06 (≈ 0.109 µM)	0.06 (≈ 0.109 µM)	0.06 (≈ 0.109 µM)	> 128	–	–	–	–	–
COC(=O)c1cc2cc3c(c(O)c2c(=O)o1)OC1(Cc2c(O)c4c(c(O)c2O1)C(=O)C(NCC#N)=CC4=O)CC3O (centres unmarked) [Example 16, 7'-(cyanomethylen)amino purpuromycin]	–	0.016 (≈ 0.0284 µM)	0.03 (≈ 0.0533 µM)	–	0.13 (≈ 0.231 µM)	0.13 (≈ 0.231 µM)	0.5 (≈ 0.889 µM)	0.13 (≈ 0.231 µM)	> 128	> 128	0.13 (≈ 0.231 µM)	0.13 (≈ 0.231 µM)	0.13 (≈ 0.231 µM)	> 128	128 (≈ 228 µM)	2	0.13 (≈ 0.231 µM)	–	–
COC(=O)c1cc2cc3c(c(O)c2c(=O)o1)OC1(Cc2c(O)c4c(c(O)c2O1)C(=O)C(NCCNC(=O)OC(C)(C)C)=CC4=O)CC3O (centres unmarked) [Example 18, 7'-(2-(N--BOC-amino)ethylen)-amino purpuromycin]	–	0.016 (≈ 0.024 µM)	0.06 (≈ 0.09 µM)	–	0.13 (≈ 0.195 µM)	0.13 (≈ 0.195 µM)	0.5 (≈ 0.75 µM)	0.06 (≈ 0.09 µM)	> 128	> 128	0.13 (≈ 0.195 µM)	0.13 (≈ 0.195 µM)	0.06 (≈ 0.09 µM)	> 128	> 128	2	0.25 (≈ 0.375 µM)	–	–
COC(=O)c1cc2cc3c(c(O)c2c(=O)o1)OC1(Cc2c(O)c4c(c(O)c2O1)C(=O)C(NCCN)=CC4=O)CC3O (centres unmarked) [Example 19, 7'-(2-aminoethylen)-amino purpuromycin trifluoroacetate]	–	0.5	1	–	1	1	> 128	1	–	> 128	2	2	1	> 128	> 128	8	0.5	> 128	–
COC(=O)c1cc2cc3c(c(O)c2c(=O)o1)OC1(Cc2c(O)c4c(c(O)c2O1)C(=O)C(NCCO)=CC4=O)CC3O (centres unmarked) [Example 21, 7'-(2-hydroxyethylen)-amino purpuromycin]	–	–	0.016 (≈ 0.0282 µM)	–	0.13 (≈ 0.229 µM)	0.06 (≈ 0.106 µM)	0.13 (≈ 0.229 µM)	0.13 (≈ 0.229 µM)	≥ 128	≥ 128	0.03 (≈ 0.0529 µM)	0.06 (≈ 0.106 µM)	0.06 (≈ 0.106 µM)	≥ 128	≥ 128	1	–	–	0.004 (≈ 0.00705 µM)
COC(=O)c1cc2cc3c(c(O)c2c(=O)o1)OC1(Cc2c(O)c4c(c(O)c2O1)C(=O)C(NCC(F)(F)F)=CC4=O)CC3O (centres unmarked) [Example 23, 7'-(2,2,2-trifluoroethylen)-amino purpuromycin]	–	–	0.06 (≈ 0.0991 µM)	–	0.03 (≈ 0.0496 µM)	0.016 (≈ 0.0264 µM)	0.06 (≈ 0.0991 µM)	0.016 (≈ 0.0264 µM)	> 128	> 128	0.13 (≈ 0.215 µM)	0.03 (≈ 0.0496 µM)	0.016 (≈ 0.0264 µM)	> 128	> 128	2	0.03 (≈ 0.0496 µM)	–	0.008 (≈ 0.0132 µM)
COC(=O)c1cc2cc3c(c(O)c2c(=O)o1)OC1(Cc2c(O)c4c(c(O)c2O1)C(=O)C(N)=CC4=O)CC3O (centres unmarked) [Example 25, 7'-Aminopurpuromycin]	–	–	0.016 (≈ 0.0306 µM)	–	0.06 (≈ 0.115 µM)	0.03 (≈ 0.0573 µM)	0.06 (≈ 0.115 µM)	0.06 (≈ 0.115 µM)	> 128	> 128	0.03 (≈ 0.0573 µM)	0.06 (≈ 0.115 µM)	0.03 (≈ 0.0573 µM)	> 128	–	1	–	–	0.008 (≈ 0.0153 µM)
